# Assay results taken from patent US10041044B2, “Age-associated clonal hematopoiesis accelerates cardio-metabolic disease development” (TRUSTEES OF BOSTON UNIVERSITY, priority 2016, dated 2018).
# How the values were obtained:
# [1] = system: atherosclerotic plaque in Ldlr−/− BMT mice; assay: Aortic root plaque size in high fat/high cholesterol diet-fed competitive-BMT Ldlr−/− mice; format: in vivo; details: continuous infusion 5 mg/kg/day via subcutaneous osmotic pumps
# Protocol: Aortic root plaque size in high fat/high cholesterol diet-fed 10% KO-BMT mice and 10% WT-BMT. […] Representative images of hematoxylin/eosin-stained sections are shown; plaques are delineated by discontinuous lines (scale bar: 100 μm). Statistical significance was evaluated by 2-way ANOVA with Tukey multiple comparison test (*p<0.05, […]).
# Lethally irradiated Ldlr−/− recipients were transplanted with suspensions of BM cells containing 10% CD45.2+ Tet2−/− cells and 90% CD45.1+ Tet2+/+ cells (10% KO-BMT mice), or 10% CD45.2+ Tet2+/+ cells and 90% CD45.1+ Tet2+/+ cells (10% WT-BMT mice) (Fig. S1). BM cells were isolated from femurs and tibias of donor mice after euthanasia. Donor CD45.2+ cells were obtained from Tet2+/+ or −/− littermates; donor CD45.1+ cells were obtained from Pep Boy mice. Recipient Ldlr−/− mice were irradiated in a pie cage (Braintree Scientific) to limit mobility and ensure equal dose of irradiation and were exposed to two radiation doses of 550 rad three hours apart using an X-RAD 320 Biological Irradiator. After the second irradiation, each recipient mouse was injected with 10^7 BM cells i.v. Sterilized caging, food and water were provided during the first 14 days post-transplant and water was supplemented with antibiotics (Sulfatrim). […]
# Mice were euthanized and aortas were removed after in situ perfusion with phosphate-buffered saline (PBS) injected through the left ventricle of the heart. […] All histological sections comprising the aortic root as determined by the location of the aortic valve leaflets were cut at a thickness of 6 μm. An operator who was blinded to genotype quantified plaque size in aortic root sections by computer-assisted morphometric analysis of microscopy images acquired on a KEYENCE BZ-9000 microscope. For each mouse, atherosclerosis plaque size in aortic root cross-sections was calculated as the average of 5 independent sections separated by ˜18 μm.
# [2] = system: heart failure by chronic ischemia (LAD ligation) in mice; assay: Post-infarction remodeling after permanent LAD ligation in BMT mice; format: in vivo
# Text: 21A. Scheme of the experimental study. Mice underwent partial (10%) bone marrow reconstitution with Tet2-deficient cells or WT cells following lethal irradiation. After 8 weeks of recovery, mice underwent permanent LAD ligation. PBS or MCC-950 infusion by osmotic pump was initiated 1 week after LAD ligation for 4 weeks. 21B. […] 21C.
# (§1) Heart failure was induced in C57/B16 mice by pressure overload, achieved by transverse aortic constriction (TAC), or by chronic ischemia, induced by the permanent ligation of the left anterior descending (LAD) artery (FIGS. 19, 20). In both models, Tet2-deficient hematopoietic cells were used to partially reconstitute the bone marrow of lethally irradiated mice, leading to their clonal expansion. Alternatively, Tet2 was specifically ablated in myeloid cells using Cre recombinase expressed from the LysM promoter. In mice, undergoing LAD ligation, Tet2-deficiency led to worsened cardiac remodeling and function regardless of the means of Tet2 ablation. In mice undergoing TAC, Tet2-deficiency led to greater hypertrophy and systolic dysfunction regardless of the means of Tet2 ablation.
# [3] = system: heart failure by pressure overload (TAC) in mice; assay: Pressure overload (TAC) heart failure in BMT mice; format: in vivo
# Text: 22A. Scheme of the experimental study. Mice underwent partial (10%) bone marrow reconstitution with Tet2-deficient cells or WT cells following lethal irradiation. After 8 weeks of recovery, mice underwent permanent TAC surgery to produce pressure overload on the heart. 22B. […] 22C. […] 22D. […] LVPWTd=left ventricle posterior wall thickness at diastole, FS=fractional shortening. 22E.
# as §1
# IL-6 expression = assay: qRT-PCR of IL-6 expression in LPS/IFNγ-treated peritoneal macrophages; format: cell-based, mouse; details: 8 hours 10 ng/mL LPS and 2 ng/ml IFNγ; 0.5 μM TSA
# Protocol: (§2) 14A. qRT-PCR analysis of IL-1β expression in peritoneal macrophages isolated from Tet2−/− or +/+ mice (n=3 mice/genotype) and treated for 8 hours with 10 ng/mL LPS and 2 ng/ml IFNγ in the absence or presence of 0.5 μM Trichostatin A (TSA). 14B. ChIP analysis of H3 acetylation in the IL-1β promoter of macrophages isolated from Tet2−/− or +/+ mice (n=6/genotype) after 10 hours of LPS/IFNγ treatment. 14C. qRT-PCR analysis of IL-6 expression in peritoneal macrophages isolated from Tet2−/−/ mice or +/+ controls (n=3 mice/genotype) and treated for 8 hours with 10 ng/mL LPS and 2 ng/ml IFNγ in the absence or presence of 0.5 μM TSA. 14D. […]
# (§3) Thioglycollate-elicited macrophages were obtained from the peritoneal cavity of mice 4 days after intraperitoneal injection of 1 ml of aged 4% Brewer's thioglycollate broth (BD Difco). […] Cell cycle progression and apoptosis of cultured macrophages was evaluated by flow cytometry analysis of DNA content. […] For analysis of apoptosis induced by treatment with 7-ketocholesterol (Sigma), hypodiploid (SubG1) cells were quantified using with FLOWJO Software. Uptake of fluorescent dil-conjugated oxidized LDL (Alfa Aesar) was evaluated by flow cytometry analysis. […]
# (§4) Total RNA from tissues and cultured cells was isolated using QIAZOL reagent and RNEASY kits (QIAGEN). […] Results were analyzed with the ΔΔCt method. […]
# TNF expression = assay: qRT-PCR of TNF expression in LPS/IFNγ-treated peritoneal macrophages; format: cell-based, mouse; details: HDAC inhibition with TSA in macrophages
# Text: Although many details of its role in regulating chromatin architecture remain unknown, Tet2 has emerged as a multifaceted epigenetic regulator that is able to facilitate both transcription activation and repression depending on the molecular and cellular context. Given that Tet2 loss-of-function is associated with increased IL-1β gene expression, experiments were focused on potential mechanisms of Tet2-mediated transcriptional repression in macrophages.
# as §3, with “Difco). Macrophages were allowed to adhere for 4 hours and cultured in RPMI medium supplemented with antibiotics and 10% FBS (PERFORMANCE PLUS FBS, Gibco).” for “Difco).”
# as §4
# IL-1β expression = assay: qRT-PCR of IL-1β expression in LPS/IFNγ-treated peritoneal macrophages; format: cell-based, mouse; details: 8 hours 10 ng/mL LPS and 2 ng/ml IFNγ; 0.5 μM TSA
# Protocol: as §2, §3, §4
# [4] = mice reconstituted with Tet2-knockout bone marrow, after pressure overload
smiles,measurement,setting,value
CC(C)(O)c1coc(S(=O)(=O)NC(=O)Nc2c3c(cc4c2CCC4)CCC3)c1 [MCC950],decrease of atherosclerotic plaque size,[1]; 10% KO-BMT mice,~50%
same,reduction of atherosclerotic plaque size,"[1]; 10% WT-BMT controls, nonstatistically significant",20%
same,difference in aortic plaque size between chimeric (10% KO-BMT) and nonchimeric control mice,[1],eliminated
same,differences in cardiac parameters between Tet2-deficient and WT conditions,[2]; 5 week time point post-LAD ligation,eliminates the differences in cardiac parameters
same,development of heart failure,[2]; LAD ligation model (FIG. 21),protected against the development of heart failure
same,"cardiac remodeling, echocardiographic ejection fraction (EF)","[2]; Tet2-KO and wild-type bone marrow, osmotic pump infusion from 1 week after LAD ligation for 4 weeks",protects against adverse cardiac remodeling
same,differences in cell size between Tet2-deficient and WT conditions,[2]; after LAD ligation,eliminates the differences in cell size
same,cardiac myocyte hypertrophy after LAD ligation,[2]; mice reconstituted with Tet2-KO and wild-type bone marrow,inhibits the increase in cardiac myocyte hypertrophy
same,development of heart failure,[3]; TAC model (FIG. 22),protected against the development of heart failure
same,difference in cardiac fibrosis between Tet2-deficient and WT conditions,[3]; after pressure overload,eliminates the difference in this parameter
same,difference in myocyte CSA between Tet2-deficient and WT conditions,[3]; after pressure overload,eliminates the difference in this parameters
same,differences in HW and LW between Tet2-deficient and WT conditions,[3]; after pressure overload,eliminates the differences in these parameters
same,differences in echocardiographic parameters between Tet2-deficient and WT conditions,[3]; after pressure overload,eliminates the differences in the echocardiographic parameters
same,heart weight (HW) and wet lung weight (LW) adjusted by tibia length (TL),"[3]; after pressure overload, both strains of mice",ameliorates the increase of cardiac and lung mass
same,myocyte cross-sectional area (CSA),"[3]; after pressure overload, wild type and hematopoietic Tet2-KO mice",inhibits hypertrophy
same,cardiac fibrosis (Picro sirius staining),[3]; [4],can be reversed
same,"deterioration of cardiac function (echocardiographic parameters, LVPWTd, FS)",[3]; [4],can be reversed
CC(/C=C/C(=O)NO)=C\[C@@H](C)C(=O)c1ccc(N(C)C)cc1 [Trichostatin A],IL-6 expression differences between genotypes,IL-6 expression,did not affect differences between genotypes
same,IL-6 transcript expression (qRT-PCR),IL-6 expression,reduced transcript expression
same,TNF transcript expression,TNF expression,reduced transcript expression
same,IL-1β expression (qRT-PCR),IL-1β expression,increased IL-1β expression
same,IL-1β expression differences between Tet2-deficient and WT genotypes,IL-1β expression,abolished expression differences
